From the NIST ThermoML archive (doi:10.1021/acs.jced.9b00540)

What was measured:
[1] = Liquid, Falling or rolling sphere viscometry
[2] = xn = mol fraction of the nth substance listed; settings: Liquid, x2 = 0

CCOC(F)(C(F)(F)C(F)(F)C(F)(F)F)C(F)(C(F)(F)F)C(F)(F)F (stereo not given) [2-trifluoromethyl-3-ethoxydodecafluorohexane]
viscosity [mPa·s], [1]
Settings | 100 kPa | 20000 kPa | 40000 kPa | 60000 kPa | 80000 kPa | 100000 kPa
293.15 K | 1.369 | 1.894 | 2.645 | 3.622 | 4.894 | 6.553
313.15 K | 0.983 | 1.356 | 1.869 | 2.51 | 3.31 | 4.307
333.15 K | 0.739 | 1.032 | 1.41 | 1.87 | 2.427 | 3.105
353.15 K | 0.576 | 0.799 | 1.084 | 1.418 | 1.808 | 2.265

CC(C)OC(C)C [diisopropyl ether]
viscosity [mPa·s], [1]
Settings | 100 kPa | 20000 kPa | 40000 kPa | 60000 kPa | 80000 kPa | 100000 kPa
293.15 K | 0.33 | 0.396 | 0.466 | 0.542 | 0.625 | 0.715
313.15 K | 0.27 | 0.332 | 0.392 | 0.454 | 0.52 | 0.588
333.15 K | 0.225 | 0.282 | 0.342 | 0.402 | 0.46 | 0.517
353.15 K | – | 0.258 | 0.308 | 0.358 | 0.408 | 0.457

CC(C)OC(C)C [diisopropyl ether] + CCOC(F)(C(F)(F)C(F)(F)C(F)(F)F)C(F)(C(F)(F)F)C(F)(F)F
viscosity [mPa·s], [2]
Settings | 293.15 K | 313.15 K | 333.15 K | 353.15 K
100 kPa, Capillary tube (Ostwald / Ubbelohde) method | 0.33 | 0.27 | 0.225 | –
20000 kPa, Falling or rolling sphere viscometry | 0.396 | 0.332 | 0.282 | 0.258
40000 kPa, Falling or rolling sphere viscometry | 0.466 | 0.392 | 0.342 | 0.308
60000 kPa, Falling or rolling sphere viscometry | 0.542 | 0.454 | 0.402 | 0.358
80000 kPa, Falling or rolling sphere viscometry | 0.625 | 0.52 | 0.46 | 0.408
100000 kPa, Falling or rolling sphere viscometry | 0.715 | 0.588 | 0.517 | 0.457
